Measurements taken from patent publication US10757941B2, “Microbiocidal oxadiazole derivatives” (SYNGENTA PARTICIPATIONS AG, priority 2016, dated 2020).

Legend:
[1] = system: Puccinia recondita f. Sp. Tritici; test: Fungicidal activity against Puccinia recondita f. sp. tritici / wheat / leaf disc preventative (brown rust); assay type: in vivo; details: foliar, 200 ppm in the applied formulation, wheat leaf segments cv. Kanzler, preventative (inoculated 1 day after application), assessed 7 to 9 days after application, compared to untreated, read-out: disease control
Protocol: Leaf disks or leaf segments of various plant species are cut from plants grown in a greenhouse. The cut leaf disks or segments are placed in multiwell plates (24-well format) onto water agar. The leaf disks are sprayed with a test solution before (preventative) or after (curative) inoculation. Compounds to be tested are prepared as DMSO solutions (max. 10 mg/ml) which are diluted to the appropriate concentration with 0.025% Tween20 just before spraying. The inoculated leaf disks or segments are incubated under defined conditions (temperature, relative humidity, light, etc.) according to the respective test system. A single evaluation of disease level is carried out 3 to 14 days after inoculation, depending on the pathosystem. Percent disease control relative to the untreated check leaf disks or segments is then calculated. Example 1: Fungicidal Activity Against Puccinia recondita f. Sp. Tritici/Wheat/Leaf Disc Preventative (Brown Rust) Wheat leaf segments cv. Kanzler were placed on agar in multiwell plates (24-well format) and sprayed with the formulated test compound diluted in water. The leaf disks were inoculated with a spore suspension of the fungus 1 day after application. The inoculated leaf segments were incubated at 19° C. and 75% relative humidity (rh) under a light regime of 12 hours light/12 hours darkness in a climate cabinet and the activity of a compound was assessed as percent disease control compared to untreated when an appropriate level of disease damage appears in untreated check leaf segments (7 to 9 days after application). The following compounds at 200 ppm in the applied formulation give at least 80% disease control in this test when compared to untreated control leaf disks under the same conditions, which show extensive disease development.

[2] = system: Puccinia recondita f. Sp. Tritici; test: Fungicidal activity against Puccinia recondita f. sp. tritici / wheat / leaf disc curative (brown rust); assay type: in vivo; details: foliar, 200 ppm in the applied formulation, wheat leaf segments cv. Kanzler, curative (applied 1 day after inoculation), assessed 6 to 8 days after application, compared to untreated, read-out: disease control
Protocol: Leaf disks or leaf segments of various plant species are cut from plants grown in a greenhouse. The cut leaf disks or segments are placed in multiwell plates (24-well format) onto water agar. The leaf disks are sprayed with a test solution before (preventative) or after (curative) inoculation. Compounds to be tested are prepared as DMSO solutions (max. 10 mg/ml) which are diluted to the appropriate concentration with 0.025% Tween20 just before spraying. The inoculated leaf disks or segments are incubated under defined conditions (temperature, relative humidity, light, etc.) according to the respective test system. A single evaluation of disease level is carried out 3 to 14 days after inoculation, depending on the pathosystem. Percent disease control relative to the untreated check leaf disks or segments is then calculated. Example 2: Fungicidal Activity Against Puccinia recondita f. Sp. Tritici/Wheat/Leaf Disc Curative (Brown Rust) Wheat leaf segments cv. Kanzler are placed on agar in multiwell plates (24-well format). The leaf segments are then inoculated with a spore suspension of the fungus. Plates were stored in darkness at 19° C. and 75% relative humidity. The formulated test compound diluted in water was applied 1 day after inoculation. The leaf segments were incubated at 19° C. and 75% relative humidity under a light regime of 12 hours light/12 hours darkness in a climate cabinet and the activity of a compound was assessed as percent disease control compared to untreated when an appropriate level of disease damage appears in untreated check leaf segments (6 to 8 days after application). The following compounds at 200 ppm in the applied formulation give at least 80% disease control in this test when compared to untreated control leaf disks under the same conditions, which show extensive disease development.

[3] = system: Glomerella lagenarium (Colletotrichum lagenarium); test: Fungicidal activity against Glomerella lagenarium (Colletotrichum lagenarium) liquid culture / cucumber / preventative (anthracnose); assay type: cell-based; details: Colletotrichum orbiculare; 20 ppm in the applied formulation; liquid culture in PDB, 24° C.; inhibition of growth measured photometrically 3 to 4 days after application; compared to untreated; read-out: disease control
Protocol: Mycelia fragments or conidia suspensions of a fungus prepared either freshly from liquid cultures of the fungus or from cryogenic storage, are directly mixed into nutrient broth. DMSO solutions of the test compound (max. 10 mg/ml) are diluted with 0.025% Tween20 by a factor of 50 and 10 μl of this solution is pipetted into a microtiter plate (96-well format). The nutrient broth containing the fungal spores/mycelia fragments is then added to give an end concentration of the tested compound. The test plates are incubated in the dark at 24° C. and 96% relative humidity. The inhibition of fungal growth is determined photometrically after 2 to 7 days, depending on the pathosystem, and percent antifungal activity relative to the untreated check is calculated. Example 4: Fungicidal Activity Against Glomerella lagenarium (Colletotrichum lagenarium) Liquid Culture/Cucumber/Preventative (Anthracnose) Conidia of the fungus from cryogenic storage are directly mixed into nutrient broth (PDB—potato dextrose broth). After placing a (DMSO) solution of test compound into a microtiter plate (96-well format), the nutrient broth containing the fungal spores is added. The test plates are incubated at 24° C. and the inhibition of growth is measured photometrically 3 to 4 days after application. The following compounds at 20 ppm in the applied formulation give at least 80% disease control in this test when compared to untreated control under the same conditions, which show extensive disease development.

[4] = system: Uromyces viciae-fabael; test: Fungicidal activity against Uromyces viciae-fabae / field bean / leaf disc preventative (faba-bean rust); assay type: in vivo; details: foliar, 288 h, 100 ppm in the applied formulation, field bean leaf discs, preventative (inoculated two hours after application), assessed 12 days after application, compared to untreated, read-out: disease control
Protocol: Leaf disks or leaf segments of various plant species are cut from plants grown in a greenhouse. The cut leaf disks or segments are placed in multiwell plates (24-well format) onto water agar. The leaf disks are sprayed with a test solution before (preventative) or after (curative) inoculation. Compounds to be tested are prepared as DMSO solutions (max. 10 mg/ml) which are diluted to the appropriate concentration with 0.025% Tween20 just before spraying. The inoculated leaf disks or segments are incubated under defined conditions (temperature, relative humidity, light, etc.) according to the respective test system. A single evaluation of disease level is carried out 3 to 14 days after inoculation, depending on the pathosystem. Percent disease control relative to the untreated check leaf disks or segments is then calculated. Example 5: Fungicidal Activity Against Uromyces viciae-fabael Field Bean/Leaf Disc Preventative (Faba-Bean Rust) Field bean leaf discs are placed on water agar in multiwell plates (96-well format) and 10 μl of the formulated test compound diluted in acetone and a spreader pipetted onto the leaf disc. Two hours after application leaf discs are inoculated by spraying a spore suspension on the lower leaf surface. The leaf discs are incubated in a climate cabinet at 22° C. with 18 hour day and 70% relative humidity. The activity of a compound is assessed as percent disease control compared to untreated when an appropriate level of disease damage appears in untreated check leaf disks (12 days after application). The following compounds at 100 ppm in the applied formulation give at least 80% disease control in this test when compared to untreated control leaf discs under the same conditions, which show extensive disease development.

[5] = system: Phakopsora pachyrhizi; test: Fungicidal activity against Phakopsora pachyrhizi / soybean / leaf disc preventative (Asian soybean rust); assay type: in vivo; details: foliar, 200 ppm in the applied formulation, soybean leaf disks, preventative (inoculated one day after application), assessed 12 to 14 days after application, compared to untreated, read-out: disease control
Protocol: Leaf disks or leaf segments of various plant species are cut from plants grown in a greenhouse. The cut leaf disks or segments are placed in multiwell plates (24-well format) onto water agar. The leaf disks are sprayed with a test solution before (preventative) or after (curative) inoculation. Compounds to be tested are prepared as DMSO solutions (max. 10 mg/ml) which are diluted to the appropriate concentration with 0.025% Tween20 just before spraying. The inoculated leaf disks or segments are incubated under defined conditions (temperature, relative humidity, light, etc.) according to the respective test system. A single evaluation of disease level is carried out 3 to 14 days after inoculation, depending on the pathosystem. Percent disease control relative to the untreated check leaf disks or segments is then calculated. Example 3: Fungicidal Activity Against Phakopsora pachyrhizi/Soybean/Leaf Disc Preventative (Asian Soybean Rust) Soybean leaf disks are placed on water agar in multiwell plates (24-well format) and sprayed with the formulated test compound diluted in water. One day after application leaf discs are inoculated by spraying a spore suspension on the lower leaf surface. After an incubation period in a climate cabinet of 24-36 hours in darkness at 20° C. and 75% rh leaf disc are kept at 20° C. with 12 h light/day and 75% rh. The activity of a compound is assessed as percent disease control compared to untreated when an appropriate level of disease damage appears in untreated check leaf disks (12 to 14 days after application). The following compounds at 200 ppm in the applied formulation give at least 80% disease control in this test when compared to untreated control leaf disks under the same conditions, which show extensive disease development.

CN(C(=O)c1ccc(-c2noc(C(F)(F)F)n2)c(F)c1)C1CCN(C(=O)OC(C)(C)C)C1 (stereo not drawn) [Compound 1.2, tert-butyl 3-[[3-fluoro-4-[5-(trifluoromethyl)-1,2,4-oxadiazol-3-yl]benzoyl]-methyl-amino]pyrrolidine-1-carboxylate]
≥ 80%: pest or weed control at 200 ppm [1] | pest or weed control at 200 ppm [2] | inhibition of growth at 20 ppm [3] | pest or weed control at 100 ppm [4]

COc1ccc2[nH]cc(CCNC(=O)c3ccc(-c4noc(C(F)(F)F)n4)c(F)c3)c2c1 [Compound 1.4, 3-fluoro-N-[2-(5-methoxy-1H-indol-3-yl)ethyl]-4-[5-(trifluoromethyl)-1,2,4-oxadiazol-3-yl]benzamide]
≥ 80%: pest or weed control at 200 ppm [1] | pest or weed control at 200 ppm [5] | inhibition of growth at 20 ppm [3] | pest or weed control at 100 ppm [4]

CN(C(=O)c1ccc(-c2noc(C(F)(F)F)n2)c(F)c1)c1ccccn1 [Compound 1.5, 3-fluoro-N-methyl-N-(2-pyridyl)-4-[5-(trifluoromethyl)-1,2,4-oxadiazol-3-yl]benzamide]
≥ 80%: pest or weed control at 200 ppm [1] | pest or weed control at 200 ppm [2] | inhibition of growth at 20 ppm [3]

CSCCCNC(=O)c1ccc(-c2noc(C(F)(F)F)n2)c(F)c1 [Compound 1.6, 3-fluoro-N-(3-methylsulfanyl-propyl)-4-[5-(trifluoromethyl)-1,2,4-oxadiazol-3-yl]benzamide]
≥ 80%: pest or weed control at 200 ppm [1] | pest or weed control at 200 ppm [2] | pest or weed control at 100 ppm [4]

C#CC1(NC(=O)c2ccc(-c3noc(C(F)(F)F)n3)c(F)c2)CCCCC1 [Compound 1.8, N-(1-ethynylcyclohexyl)-3-fluoro-4-[5-(trifluoromethyl)-1,2,4-oxadiazol-3-yl]benzamide]
≥ 80%: pest or weed control at 200 ppm [1] | pest or weed control at 200 ppm [5] | inhibition of growth at 20 ppm [3] | pest or weed control at 100 ppm [4]

O=C(NCCSCc1ccc(Cl)nc1)c1ccc(-c2noc(C(F)(F)F)n2)c(F)c1 [Compound 1.10, N-[2-[(6-chloro-3-pyridyl)methyl-sulfanyl]ethyl]-3-fluoro-4-[5-(trifluoromethyl)-1,2,4-oxadiazol-3-yl]benzamide]
≥ 80%: pest or weed control at 200 ppm [1] | pest or weed control at 200 ppm [5] | inhibition of growth at 20 ppm [3] | pest or weed control at 100 ppm [4]

COC(=O)C1(NC(=O)c2ccc(-c3noc(C(F)(F)F)n3)c(F)c2)CCN(OC)CC1 [Compound 1.13, methyl 4-[[3-fluoro-4-[5-(trifluoromethyl)-1,2,4-oxadiazol-3-yl]benzoyl]amino]-1-methoxy-piperidine-4-carboxylate]
≥ 80%: pest or weed control at 200 ppm [1] | pest or weed control at 200 ppm [2] | pest or weed control at 100 ppm [4]

CC(C)(CS(C)(=O)=O)NC(=O)c1ccc(-c2noc(C(F)(F)F)n2)c(F)c1 [Compound 1.22, N-(1,1-dimethyl-2-methylsulfonyl-ethyl)-3-fluoro-4-[5-(trifluoromethyl)-1,2,4-oxadiazol-3-yl]benzamide]
≥ 80%: pest or weed control at 200 ppm [1] | pest or weed control at 200 ppm [2] | pest or weed control at 100 ppm [4]

O=C(NCC1CC(F)(F)C1(F)F)c1ccc(-c2noc(C(F)(F)F)n2)c(F)c1 (stereo not drawn) [Compound 1.23, 3-fluoro-N-[(2,2,3,3-tetrafluoro-cyclobutyl)methyl]-4-[5-(trifluoromethyl)-1,2,4-oxadiazol-3-yl]benzamide]
≥ 80%: pest or weed control at 200 ppm [1] | pest or weed control at 200 ppm [5] | inhibition of growth at 20 ppm [3] | pest or weed control at 100 ppm [4]

CC(C)CC(C)NC(=O)c1ccc(-c2noc(C(F)(F)F)n2)c(F)c1 (stereo not drawn) [Compound 1.38, N-(1,3-dimethylbutyl)-3-fluoro-4-[5-(trifluoromethyl)-1,2,4-oxadiazol-3-yl]benzamide]
≥ 80%: pest or weed control at 200 ppm [1] | pest or weed control at 200 ppm [5] | inhibition of growth at 20 ppm [3] | pest or weed control at 100 ppm [4]

O=C(Nc1nccnn1)c1ccc(-c2noc(C(F)(F)F)n2)c(F)c1 [Compound 1.42, 3-fluoro-N-(1,2,4-triazin-3-yl)-4-[5-(trifluoromethyl)-1,2,4-oxadiazol-3-yl]benzamide]
≥ 80%: pest or weed control at 200 ppm [1] | pest or weed control at 200 ppm [2] | inhibition of growth at 20 ppm [3]
